This passage reports IC50 results from patent publication US20250197403A1, “HETEROARYL COMPOUNDS FOR TREATMENT OF COMPLEMENT FACTOR D MEDIATED DISORDERS” (Achillion Pharmaceuticals, Inc., priority 2020, published 2025).

pIC50: −log10 of the molar value.

The test deals with Human Factor D (Homo sapiens (Human), UniProt P00746). The test is described as follows: Human Factor D Assay. Type of test: biochemical. Particulars: Human Factor D 80 nM, substrate Z-L-Lys-SBzl, assay according to Example 3. As for the experimental part: The assay according to Example 3 was used to determine the IC50's of the compounds. Other standard factor D inhibition assays are also available.
Human Factor D, sequence (P00746 26-253): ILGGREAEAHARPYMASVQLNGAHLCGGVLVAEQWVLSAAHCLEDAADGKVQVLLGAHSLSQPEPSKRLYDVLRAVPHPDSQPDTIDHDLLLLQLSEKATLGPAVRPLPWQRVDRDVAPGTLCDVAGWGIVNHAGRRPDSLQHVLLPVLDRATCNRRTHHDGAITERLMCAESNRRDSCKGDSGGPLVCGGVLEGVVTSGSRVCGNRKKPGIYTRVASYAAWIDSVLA
Human Factor D (purified from human serum, Complement Technology, Inc.) at 80 nM final concentration is incubated with test compound at various concentrations for 5 min at room temperature in 50 mM Tris, 1M NaCl, pH 7.5. A synthetic substrate Z-L-Lys-SBzl and DTNB (Ellman's reagent) are added to final concentrations of 100 μM each. Absorbance at 405 nm (A405) is recorded at 30 second intervals for 30 min using a microplate spectrophotometer. IC50 values are calculated by nonlinear regression of complement Factor D reaction rates as a function of test compound concentration.

One may read the pIC50 as −log10 of the IC50, conventionally taken in molar units. Lower therefore signals a large IC50. For the molecule `CC(=O)c1cn(CC(=O)N2[C@H](C(=O)Nc3nc(C(F)(F)F)ccc3C)C[C@@]3(C)C[C@@H]23)c2c(C)cc(-c3ccc4nc(C#N)nn4c3)cc12` [Compound 22, (1R,3S,5R)-2-(2-(3-acetyl-5-(2-cyano-[1,2,4]triazolo [1,5-a]pyridin-6-yl)-7-methyl-1H-indol-1-yl)acet-yl)-5-methyl-N-(3-methyl-6-(trifluoromethyl)pyridin-2-yl)-2-azabicyclo[3.1.0] hexane-3-carboxamide], the negative logarithm of the IC50 (pIC50) was over 6.00. As for `CC(=O)c1cn(CC(=O)N2[C@H](C(=O)Nc3nc(C(F)(F)F)ccc3C#N)C[C@@]3(C)C[C@@H]23)c2c(C)nc(-c3cnc4cc(C)nn4c3)cc12` [Compound 23, (1R,3S,5R)-2-(2-(3-acetyl-7-methyl-5-(2-methylpyr-azolo[1,5-a]pyrimidin-6-yl)-1H-pyrrolo[2,3-c]pyr-idin-1-yl)acetyl)-N-(3-cyano-6-(trifluoromethyl)-pyridin-2-yl)-5-methyl-2-azabicyclo[3.1.0]hexane-3-carboxamide], the pIC50 was over 6.00. The molecule `CC(=O)c1cn(CC(=O)N2[C@H](C(=O)Nc3nc(C(F)(F)F)ccc3Cl)C[C@@]3(C)C[C@@H]23)c2c(C)nc(-c3cnc4cc(C)nn4c3)cc12` [Compound 24, (1R,3S,5R)-2-(2-(3-acetyl-7-methyl-5-(2-methylpyr-azolo[1,5-a]pyrimidin-6-yl)-1H-pyrrolo[2,3-c]pyr-idin-1-yl)acetyl)-N-(3-chloro-6-(trifluoromethyl)-pyridin-2-yl)-5-methyl-2-azabicyclo[3.1.0]hexane-3-carboxamide] showed a pIC50 of over 6.00. The result for `CC(=O)c1cn(CC(=O)N2C[C@@](F)(CF)C[C@H]2C(=O)Nc2nc(C(F)(F)F)ccc2C)c2c(C)nc(-c3cnc4cc(C)nn4c3)cc12` [Compound 25, (2S,4R)-1-(2-(3-acetyl-7-methyl-5-(2-methylpyr-azolo[1,5-a]pyrimidin-6-yl)-1H-pyrrolo[2,3-c]pyr-idin-1-yl)acetyl)-4-fluoro-4-(fluoromethyl)-N-(3-methyl-6-(trifluorometh-yl)pyridin-2-yl)pyrroli-dine-2-carboxamide] reads over 6.00; that for `CC(=O)c1cn(CC(=O)N2[C@H](C(=O)Nc3nc(Br)ccc3C)C[C@@]3(C)C[C@@H]23)c2ccc(NC3(C)COC3)cc12` [Compound 26, (1R,3S,5R)-2-(2-(3-acetyl-5-((3-methyloxetan-3-yl)-amino)-1H-indol-1-yl)-acetyl)-N-(6-bromo-3-methylpyridin-2-yl)-5-methyl-2-azabicyclo[3.1.0] hexane-3-carboxamide], over 6.00. For `CC(=O)c1cn(CC(=O)N2[C@H](C(=O)N[C@H](C)C(F)=C(C)C)C[C@@]3(C)C[C@@H]23)c2c(C)cc(-c3cnc4cc(C)nn4c3)cc12` [Compound 27, (1R,3S,5R)-2-(2-(3-acetyl-7-methyl-5-(2-methylpyr-azolo[1,5-a]pyrimidin-6-yl)-1H-indol-1-yl)acetyl)-N-((R)-3-fluoro-4-methyl-pent-3-en-2-yl)-5-methyl-2-azabicyclo[3.1.0]hexane-3-carboxamide], the pIC50 is over 6.00. The result for `CC(=O)c1cn(CC(=O)N2[C@H](C(=O)N[C@H](C)C(F)=C(C)C)C[C@@]3(C)C[C@@H]23)c2c(C)cc(-c3cnc(C)nc3)cc12` [Compound 28, (1R,3S,5R)-2-(2-(3-acetyl-7-methyl-5-(2-methylpyr-imidin-5-yl)-1H-indol-1-yl)acetyl)-N-((R)-3-fluoro-4-methylpent-3-en-2-yl)-5-methyl-2-azabicyclo[3.1.0] hexane-3-carboxamide] reads over 6.00. In the case of `CC(=O)c1cn(CC(=O)N2[C@H](C(=O)N[C@H](C)C(F)=C(C)C)C[C@@]3(C)C[C@@H]23)c2c(C)nc(-c3cnc4cc(C)nn4c3)cc12` [Compound 29, (1R,3S,5R)-2-(2-(3-acetyl-7-methyl-5-(2-methylpyr-azolo[1,5-a]pyrimidin-6-yl)-1H-pyrrolo[2,3-c]pyr-idin-1-yl)acetyl)-N-((R)-3-fluoro-4-methylpent-3-en-2-yl)-5-methyl-2-azabi-cyclo[3.1.0]hexane-3-car-boxamide] it was over 6.00.
